The text below walks through data of patent US10988477B2 (Merck Patent GmbH, priority 2018, dated 2021).

Read-outs that look alike come from different tables or passages of the source.

Assay [1] has as its target GCN2 kinase (Homo sapiens, UniProt Q9P2K8). Description: GCN2 enzyme inhibition assay (Transcreener ADP2 fluorescence polarization). Type of assay: biochemical. Particulars: 280 μM ATP. The essentials:
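Inhibition of 4 nM GCN2 was measured with compound up to 8 μM final, ATP 280 μM and (RS)7 peptide 200 μM over a 1 h, 25 °C reaction. ADP FP readout; IC50 and Ki(app) calculated from percent inhibition.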

In assay [2] the target is intracellular GCN2 (phosphorylation of the GCN2 substrate eIF2α) (Homo sapiens, UniProt Q9P2K8). Description: GCN2 cellular inhibition assay (AlphaScreen SureFire P-eIF2α Ser51, borrelidin-treated U2OS cells). Format: cell-based. The essentials:
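Borrelidin at 10 μM is added to U2OS cells immediately after compound (4-fold dilution series, 40 μM top final) for 1 h at 37 °C. Phosphorylated eIF2α Ser51 in lysates is quantified by AlphaScreen and expressed as percent inhibition against borrelidin-stimulated controls.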
A general note: Alpha assays give light when donor and acceptor beads are brought close together.

[3] abbreviates: Enzyme activity for compounds of Formula IV, Ki(app), 25° C.
[4] abbreviates: compounds of Formula IV, biomarker assay, phosphorylated eIF2α Ser51 in borrelidin-treated U2OS cells.
The mark [5] stands for this setting: compounds of Formula II, 4 nM GCN2 kinase.
Setting [6] is: compounds of Formula II, biomarker assay, phosphorylated eIF2α Ser51 in borrelidin-treated U2OS cells.

Chain of GCN2 kinase (Q9P2K8 whole entry): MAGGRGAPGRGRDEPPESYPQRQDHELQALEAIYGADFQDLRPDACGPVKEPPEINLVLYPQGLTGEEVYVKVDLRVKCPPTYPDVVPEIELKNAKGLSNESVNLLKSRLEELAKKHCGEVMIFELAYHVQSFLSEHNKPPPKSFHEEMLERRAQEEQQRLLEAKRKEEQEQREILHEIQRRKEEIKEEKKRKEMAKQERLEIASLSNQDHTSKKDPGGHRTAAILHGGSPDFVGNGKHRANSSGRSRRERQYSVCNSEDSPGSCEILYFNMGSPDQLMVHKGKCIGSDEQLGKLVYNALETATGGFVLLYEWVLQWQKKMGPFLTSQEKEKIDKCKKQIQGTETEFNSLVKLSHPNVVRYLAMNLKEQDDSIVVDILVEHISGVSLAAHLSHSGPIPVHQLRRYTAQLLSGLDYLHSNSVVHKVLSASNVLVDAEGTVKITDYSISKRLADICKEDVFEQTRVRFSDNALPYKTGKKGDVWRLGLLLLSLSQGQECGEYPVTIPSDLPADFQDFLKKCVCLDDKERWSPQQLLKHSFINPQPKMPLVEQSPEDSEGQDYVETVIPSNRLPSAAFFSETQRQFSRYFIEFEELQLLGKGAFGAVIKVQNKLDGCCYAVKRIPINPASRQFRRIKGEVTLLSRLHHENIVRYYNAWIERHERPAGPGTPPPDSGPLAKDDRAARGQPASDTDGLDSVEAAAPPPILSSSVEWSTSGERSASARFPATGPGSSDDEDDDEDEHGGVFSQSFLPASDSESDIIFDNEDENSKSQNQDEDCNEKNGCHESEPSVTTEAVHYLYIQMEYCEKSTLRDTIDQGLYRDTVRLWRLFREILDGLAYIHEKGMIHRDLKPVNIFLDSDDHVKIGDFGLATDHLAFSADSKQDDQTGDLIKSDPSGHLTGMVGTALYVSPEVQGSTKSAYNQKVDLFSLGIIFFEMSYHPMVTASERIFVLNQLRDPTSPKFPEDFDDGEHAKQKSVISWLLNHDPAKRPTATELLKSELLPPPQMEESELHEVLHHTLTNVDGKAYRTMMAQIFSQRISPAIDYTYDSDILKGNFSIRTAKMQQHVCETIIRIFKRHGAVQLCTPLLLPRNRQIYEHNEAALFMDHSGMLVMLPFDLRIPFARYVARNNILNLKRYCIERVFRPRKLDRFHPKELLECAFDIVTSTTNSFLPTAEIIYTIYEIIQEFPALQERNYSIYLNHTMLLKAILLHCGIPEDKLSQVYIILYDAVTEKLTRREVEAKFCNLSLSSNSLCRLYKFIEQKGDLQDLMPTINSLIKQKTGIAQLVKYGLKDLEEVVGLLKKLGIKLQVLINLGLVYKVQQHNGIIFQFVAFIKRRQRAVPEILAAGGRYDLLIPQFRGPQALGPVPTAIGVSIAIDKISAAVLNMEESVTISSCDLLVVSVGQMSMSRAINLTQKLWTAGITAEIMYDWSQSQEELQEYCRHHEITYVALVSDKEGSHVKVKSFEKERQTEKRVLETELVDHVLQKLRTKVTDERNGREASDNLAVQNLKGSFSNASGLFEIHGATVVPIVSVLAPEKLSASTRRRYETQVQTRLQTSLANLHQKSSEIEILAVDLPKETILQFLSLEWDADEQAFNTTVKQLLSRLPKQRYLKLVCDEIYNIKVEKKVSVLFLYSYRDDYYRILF
Chain of intracellular GCN2 (phosphorylation of the GCN2 substrate eIF2α) (Q9P2K8 whole entry): as above

The term IC50 denotes the midpoint of a concentration-inhibition curve. With `CS(C)(=O)=N[C@@H]1C[C@@H](c2cn[nH]c2)CN(c2ccnc(-c3cnc4cnc(C(F)(F)F)cn34)n2)C1` (racemic) [IV-394], the Ki in assay [1] (setting [3]) lay within 100 to 1000 nM. Moreover, the IC50 in assay [2] (setting [4]) is > 5 µM.

In the case of `CS(=O)(=O)NCC1(O)CCN(c2cc(-c3cnc4ccc(C(F)F)nn34)ncn2)C1` (stereo not drawn) [II-137, N-((1-(6-(6-(Difluoromethyl)imidazo[1,2-b]pyridazin-3-yl)pyrimidin-4-yl)-3-hydroxypyrrolidin-3-yl)methyl)methanesulfonamide], the Ki in assay [1] (setting [5]) was 10 to 1000 nM. In addition, in assay [2] (setting [6]), the 50% inhibitory concentration (IC50) is > 5 µM.

For `CC1C(CNS(N)(=O)=O)CCCN1c1cc(-c2cnc3ccc(C(F)F)nn23)ncn1` (stereo not drawn) [II-387, 6-(Difluoromethyl)-3-[6-[2-methyl-3-[(sulfamoylamino)methyl]-1-piperidyl]pyrimidin-4-yl]imidazo[1,2-b]pyridazine], the Ki in assay [1] (setting [5]) was 10 to 1000 nM. The 50% inhibitory concentration (IC50) in assay [2] (setting [6]) lay in the range of 0.5 to 5 µM.

For `NC(=O)C1CCCN(c2cccc(-c3cnc4cnc(C(F)F)cn34)n2)C1` (stereo not drawn) [IV-55, 1-(6-(6-(Difluoromethyl)imidazo[1,2-a]pyrazin-3-yl)pyridin-2-yl)piperidine-3-carboxamide], the Ki in assay [1] (setting [3]) is 10 to 100 nM. Besides, in assay [2] (setting [4]), the half-maximal inhibitory concentration (IC50) was in the range of 0.5 to 5 µM.

In assay [1] (setting [5]), `CC(C)(NS(C)(=O)=O)C1CCCN(c2cc(-c3cnc4ccc(C(F)F)nn34)ccn2)C1` (stereo not drawn) [II-114, N-(2-(1-(4-(6-(Difluoromethyl)imidazo[1,2-b]pyridazin-3-yl)pyridin-2-yl)piperidin-3-yl)propan-2-yl)methanesulfonamide] showed a Ki of 10 to 1000 nM. Besides, the IC50 in assay [2] (setting [6]) was > 5 µM.

`CS(=O)(=O)NC[C@@H]1CN(c2ccnc(-c3cnc4cnc(C(F)F)cn34)n2)CCO1` [IV-23, (S)—N-((4-(2-(6-(Difluoromethyl)imidazo[1,2-a]pyrazin-3-yl)pyrimidin-4-yl)morpholin-2-yl)methyl)methanesulfonamide] returned a Ki in assay [1] (setting [3]) of 100 to 1000 nM. Further, in assay [2] (setting [4]), the IC50 is > 5 µM.

In turn, `CP(C)(=O)C1CC(c2cn[nH]c2)CN(c2ccnc(-c3cnc4cnc(C(F)(F)F)cn34)n2)C1` (stereo not drawn) [IV-591, (5-(1H-Pyrazol-4-yl)-1-(2-(6-(trifluoromethyl)imidazo[1,2-a]pyrazin-3-yl)pyrimidin-4-yl)piperidin-3-yl)dimethylphosphine oxide] returned a Ki in assay [1] (setting [3]) of 100 to 1000 nM. Moreover, the IC50 in assay [2] (setting [4]) was > 5 µM.

In the case of `C[C@@H]1C[C@H](CS(C)(=N)=O)[C@H](C)N(c2cc(-c3cnc4ccc(C(F)F)nn34)ncn2)C1` (stereo partly drawn) [II-607, (((2S,3S,5R)-1-(6-(6-(Difluoromethyl)imidazo[1,2-b]pyridazin-3-yl)pyrimidin-4-yl)-2,5-dimethylpiperidin-3-yl)methyl)(imino)(methyl)-λ^6-sulfanone], the Ki in assay [1] (setting [5]) is < 10 nM. In addition, the IC50 in assay [2] (setting [6]) was < 0.5 µM.

For the compound `CC1CN(c2cc(-c3cnc4ccc(C(F)F)nn34)ccn2)CC(CNS(C)(=O)=O)C1(F)F` (stereo not drawn) [II-57, N-((1-(4-(6-(Difluoromethyl)imidazo[1,2-b]pyridazin-3-yl)pyridin-2-yl)-4,4-difluoro-5-methylpiperidin-3-yl)methyl)methanesulfonamide], in assay [1] (setting [5]), the Ki was < 10 nM. Also, in assay [2] (setting [6]), the IC50 lay within 0.5 to 5 µM.

As for `OC1CCN(CCC2CCN(c3cc(-c4cnc5ccc(C(F)F)nn45)ncn3)CC2)C1` (stereo not drawn) [II-351, 1-(2-(1-(6-(6-(Difluoromethyl)imidazo[1,2-b]pyridazin-3-yl)pyrimidin-4-yl)piperidin-4-yl)ethyl)pyrrolidin-3-ol], the Ki in assay [1] (setting [5]) lay within 10 to 1000 nM. The half-maximal inhibitory concentration (IC50) in assay [2] (setting [6]) was > 5 µM.

Regarding `COC1CCN(c2cc(-c3cnc4ccc(C(F)F)nn34)ncn2)CC1CNS(C)(=O)=O` (stereo not drawn) [II-390, N-((1-(6-(6-(Difluoromethyl)imidazo[1,2-b]pyridazin-3-yl)pyrimidin-4-yl)-4-methoxypiperidin-3-yl)methyl)methanesulfonamide], the Ki in assay [1] (setting [5]) is < 10 nM. Besides, in assay [2] (setting [6]), the IC50 is < 0.5 µM.

As for `C[C@@H]1CN(c2ccnc(-c3cnc4cnc(C(F)(F)F)cn34)n2)C[C@H](c2cn[nH]c2)O1` (racemic) [IV-12, Cis-2-Methyl-6-(1H-pyrazol-4-yl)-4-(2-(6-(trifluoromethyl)imidazo[1,2-a]pyrazin-3-yl)pyrimidin-4-yl)morpholine], in assay [1] (setting [3]), the Ki is < 10 nM. Further, in assay [2] (setting [4]), the IC50 was < 0.5 µM.

`NC(=O)C1COCCN(c2cc(-c3cnc4ccc(C(F)F)nn34)ncn2)C1` (stereo not drawn) [II-210, 4-(6-(6-(Difluoromethyl)imidazo[1,2-b]pyridazin-3-yl)pyrimidin-4-yl)-1,4-oxazepane-6-carboxamide] yielded a Ki in assay [1] (setting [5]) of 10 to 1000 nM. In assay [2] (setting [6]), the IC50 is > 5 µM.

`FC(F)c1ccc2ncc(-c3ccnc(N4CCn5cnnc5C4)c3)n2n1` [II-174, 7-(4-(6-(Difluoromethyl)imidazo[1,2-b]pyridazin-3-yl)pyridin-2-yl)-5,6,7,8-tetrahydro-[1,2,4]triazolo[4,3-a]pyrazine] yielded a Ki in assay [1] (setting [5]) of 10 to 1000 nM. The IC50 in assay [2] (setting [6]) was > 5 µM.

Regarding `CC1CCC(N=S(C)(C)=O)CN1c1cc(-c2cnc3ccc(C(F)F)nn23)ncn1` (stereo not drawn) [II-696, [1-[6-[6-(Difluoromethyl)imidazo[1,2-b]pyridazin-3-yl]pyrimidin-4-yl]-6-methyl-3-piperidyl]imino-dimethyl-λ^6-sulfanone], the Ki in assay [1] (setting [5]) was in the range of 10 to 1000 nM. Besides, the IC50 in assay [2] (setting [6]) is > 5 µM.

As to `CC1C(CNS(C)(=O)=O)CCN1c1cc(-c2cnc3ccc(C(F)F)nn23)ncn1` (stereo not drawn) [II-243, N-((1-(6-(6-(Difluoromethyl)imidazo[1,2-b]pyridazin-3-yl)pyrimidin-4-yl)-2-methylpyrrolidin-3-yl)methyl)methanesulfonamide], the Ki in assay [1] (setting [5]) lay in the range of 10 to 1000 nM. The IC50 in assay [2] (setting [6]) fell in the range of 0.5 to 5 µM.

With `CC1C(c2cn[nH]c2)CCCN1c1nccc(-c2cnc3cnc(C(F)(F)F)cn23)n1` (stereo not drawn) [IV-485, 3-(2-(2-Methyl-3-(1H-pyrazol-4-yl)piperidin-1-yl)pyrimidin-4-yl)-6-(trifluoromethyl)imidazo[1,2-a]pyrazine], the Ki in assay [1] (setting [3]) is < 10 nM. Further, the half-inhibitory concentration (IC50) in assay [2] (setting [4]) is < 0.5 µM.

Take `Cc1ccc2ncc(-c3cc(N4CCO[C@H](CNS(C)(=O)=O)C4)ncn3)n2n1` [II-328, (S)—N-((4-(6-(6-Methylimidazo[1,2-b]pyridazin-3-yl)pyrimidin-4-yl)morpholin-2-yl)methyl)methanesulfonamide]: the Ki in assay [1] (setting [5]) was 10 to 1000 nM. Also, the IC50 in assay [2] (setting [6]) fell in the range of 0.5 to 5 µM.

Consider `CC(=O)N1CCN(c2ccnc(-c3cnc4cnc(C(F)(F)F)cn34)n2)CC1` [IV-24, 1-(4-(2-(6-(Trifluoromethyl)imidazo[1,2-a]pyrazin-3-yl)pyrimidin-4-yl)piperazin-1-yl)ethan-1-one], for which the Ki in assay [1] (setting [3]) was in the range of 100 to 1000 nM. Besides, in assay [2] (setting [4]), the IC50 is > 5 µM.

For the compound `CC1CCC(CNS(C)(=O)=O)CN1c1cc(-c2cnc3ccc(C(F)F)nn23)ncn1` (stereo not drawn) [II-3, N-((1-(6-(6-(Difluoromethyl)imidazo[1,2-b]pyridazin-3-yl)pyrimidin-4-yl)-6-methylpiperidin-3-yl)methyl)methanesulfonamide], the Ki in assay [1] (setting [5]) was < 10 nM. The compound also showed a half-maximal inhibitory concentration (IC50) in assay [2] (setting [6]) of 0.5 to 5 µM.

As to `FC(F)(F)c1cn2c(-c3nccc(N4CCCC(n5ccnn5)C4)n3)cnc2cn1` (stereo not drawn) [IV-493, 3-(4-(3-(1H-1,2,3-Triazol-1-yl)piperidin-1-yl)pyrimidin-2-yl)-6-(trifluoromethyl)imidazo[1,2-a]pyrazine], the Ki in assay [1] (setting [3]) lay in the range of 10 to 100 nM. In addition, in assay [2] (setting [4]), the 50% inhibitory concentration (IC50) was > 5 µM.

As for `CC1CN(c2nccc(-c3cnc4cnc(Cl)cn34)n2)C(C)C(c2cn[nH]c2)N1` (single isomer, unassigned) [IV-408, 6-Chloro-3-(2-(2,5-dimethyl-3-(1H-pyrazol-4-yl)piperazin-1-yl)pyrimidin-4-yl)imidazo[1,2-a]pyrazine], in assay [1] (setting [3]), the Ki is 100 to 1000 nM. The IC50 in assay [2] (setting [4]) was > 5 µM.

`C[C@H]1CCCCN1c1cc(-c2cnc3ccc(C(F)F)nn23)ncn1` [II-323, (S)-6-(Difluoromethyl)-3-(6-(2-methylpiperidin-1-yl)pyrimidin-4-yl)imidazo[1,2-b]pyridazine] displayed a Ki in assay [1] (setting [5]) of 10 to 1000 nM. Moreover, the IC50 in assay [2] (setting [6]) was 0.5 to 5 µM.

As to `CC1CC(C(N)=O)C(C)N(c2ccnc(-c3cnc4cnc(C(F)(F)F)cn34)n2)C1` (single isomer, unassigned) [IV-501, 2,5-Dimethyl-1-(2-(6-(trifluoromethyl)imidazo[1,2-a]pyrazin-3-yl)pyrimidin-4-yl)piperidine-3-carboxamide], the Ki in assay [1] (setting [3]) is < 10 nM. Also, the IC50 in assay [2] (setting [4]) lay in the range of 0.5 to 5 µM.

For `CS(=O)(=O)NC[C@@H]1CN(c2cc(-c3cnn4ccc(C(F)F)nc34)ccn2)CCO1` [III-6, N-[[(2S)-4-[4-[5-(Difluoromethyl)pyrazolo[1,5-a]pyrimidin-3-yl]-2-pyridyl]morpholin-2-yl]methyl]methanesulfonamide], the Ki in assay [1] (compounds of Formula III, 4 nM GCN2 kinase) was < 10 nM. Besides, the IC50 in assay [2] (compounds of Formula III, U2OS cells, 10 μM borrelidin, 1 h, read-out: GCN2 Biomarker (IC50)) lay within 0.5 to 5 µM.

In the case of `CNS(=O)(=O)N[C@H]1CCCN(c2cc(-c3cnc4ccc(C(F)F)nn34)ncn2)C1` [II-422, (S)-1-(1-(6-(6-(Difluoromethyl)imidazo[1,2-b]pyridazin-3-yl)pyrimidin-4-yl)piperidin-3-yl)-3-methylsulfuric diamide], the Ki in assay [1] (setting [5]) lay within 10 to 1000 nM. In addition, the half-inhibitory concentration (IC50) in assay [2] (setting [6]) is < 0.5 µM.

In the case of `CCN1CCN(c2ccnc(-c3cnc4cnc(Br)cn34)n2)[C@@H](C)[C@H]1c1cn[nH]c1` (single isomer, unassigned) [IV-402, Cis-6-Bromo-3-(4-(4-ethyl-2-methyl-3-(1H-pyrazol-4-yl)piperazin-1-yl)pyrimidin-2-yl)imidazo[1,2-a]pyrazine], in assay [1] (setting [3]), the Ki was < 10 nM. In addition, the 50% inhibitory concentration (IC50) in assay [2] (setting [4]) is < 0.5 µM.
